Entries after “also recorded” stand apart in the source; their conditions may differ. Where two headings read alike, the source gives them in different places.
Assays:
[1] = test system: A549 non-small cell lung tumors; experiment: A549 xenograft 20-day tumor growth inhibition assay; type: in vivo, nude mice
Procedure: A549 human non-small cell lung cancer (NSCLC) cells are treated with different doses of the 2-Methyl-2-[4-(3-methyl-2-oxo-8-quinolin-3-yl-2,3-dihydro-imidazo[4, 5-c]quinolin-1-yl)-phenyl]-propionitrile monotosylate salt (also known as COMPOUND A) or 5-(2,6-di-morpholin-4-yl-pyrimidin-4-yl)-4-trifluoromethyl-pyridin-2-ylamine hydrochloride salt (also known as COMPOUND C), a single dose of metformin or both agents in combination. The A549 human NSCLC cells (ATCC-CCL-185, available from American Type Culture Collection, Rockville, Md. US) display characteristics of type II alveolar epithelial cells (Lieber et al, Int, J, Cancer 17(1): 62-70 [1976]), The A549 NSCLC cells are homozygous for mutations in the tumor suppressor genes, CDKN2A and STK11 (also called LKB1), and in KRAS. (Wellcome Trust Sanger Institute, Catalogue of Somatic Mutations in Cancer, Cosmic ID No, 905949, available at website http://www.sanger.ac.uk/peri/genetics/CGP/core_line_viewer?action=sample&name=A549.)
A549 tumor cells are grown in Kaighn's modified Ham's F12 medium containing 100 units/mL penicillin G sodium, 100 μg/mL streptomycin sulfate, 25 μg/mL gentamicin, […], 2 mM glutamine, and 1 mM sodium pyruvate. The cells are cultured in tissue culture flasks in a humidified incubator at 37° C., in an atmosphere of 5% CO2 and 95% air. The cells are harvested for injection into 9-week old female nu/nu (nude) mice (Harlan Laboratories, Indianapolis, Ind.) by detaching the monolayers with 2X trypsin and resuspending at 5×10^7cells/mL in cold phosphate-buffered saline containing 50% Matrigel.
(§1) 0.2 mL of A549 cell suspension (1×10^7 cells) is injected subcutaneously in the right flank of 9-week old female flu/flu (nude) mice (Harlan Laboratories, Indianapolis, Ind.) having a body weight (BW) range of 19.9-27.3 g on Day 1 of the study, Tumors are callipered in two dimensions to monitor their growth as their mean volume approached 150-220 mm^3, Twenty-two days after implantation, the mice are sorted into 11 groups of eight or nine mice having individual tumor sizes of 108-221 mm^3. Tumor volume in mm^3 is determined using the formula [(width)^2×(length)][…], where width width of the tumor in mm and length=length of the tumor in mm. Tumor weight can be estimated with the assumption that 1 mg is equivalent to 1 mm^3 of tumor volume.
(§2) The 11 groups of nude mice are treated as follows. One group of nine mice serves as Controls (C or Control) for all analyses and is administered intraperitoneally (i,p,) 50 mM sodium acetate at pH 4 (Vehicle 1) and then administered by oral gavage (p.o.) a composition comprising 10% N-methylpyrrolidone: 90% polyethylene glycol 300 (PEG300) (Vehicle 2). […] Metformin is dissolved in 50 mM sodium acetate at pH 4 for dosing,
(§3) Compound A and Compound C are stored at −20° C. protected from light. Stock solutions (10X) in 100% N-methylpyrrolidone (NMP) are prepared every five days, aliquotted, and stored in the dark at room temperature. On each treatment day, stock solution aliquots are diluted with polyethylene glycol (PEG300) to provide the formulated drug (Compound A or Compound C) in 10% NMP: 90% PEG300. Dosing solutions are protected from light, and the formulated drug is administered within 1 hour after preparation.
(§4) For combination therapies, Compound A or Compound C are administered by oral gavage (p.o.) within 30 minutes after the intraperitoneal (i.p.) administration of metformin , except on Day 20 when Compound A or Compound C is given immediately after metformin.
(§5) Paclitaxel (Natural Pharmaceuticals, Inc., Beverly, Mass., USA) is administered by bolus tail-vein injections (i v) once daily on alternate days for five doses. Paclitaxel is dissolved in 50% ethanol and 50% Cremophor® EL to prepare a 10X stock solution stored at room temperature. On each day of dosing, an aliquot of the paclitaxel stock solution is diluted with 5% dextrose in water to yield a dosing solution containing 5% ethanol and 5% Cremophor®EL.

[2] = Procedure: as §1, §2, §3, §4, §5
In all groups, the dosing volume of 10 mL/kg (0.2 mL/ 20 g mouse) is scaled to the weight of each animal as determined on the day of dosing, except on weekends when the previous BW is carried forward.

[3] = test system: phosphorylated and total AMPK, MAPK, EGFR, HER and S6 ribosomal protein; experiment: Western blot of phosphorylated and total signalling proteins in breast cancer cells; type: cell-based
Procedure: (§6) MCF-7(HER2), SK-BR-3, MDA-MB-231 and MDA-MB-468 breast cancer cells are treated with different doses of 2-Methyl-2-[4-(3-methyl-2-oxo-8-quinolin-3-yl-2, 3-dihydro-imidazo[4,5-c]quinolin-1-yl)-phenyl]-propionitrile, also known as COMPOUND A, metformin or both agents in combination. Levels of phosphorylated and total AMPK, MAPK, EGFR, HER and S6 ribosomal protein are evaluated by western blot. Cell proliferation analyses are performed in triplicates using the WST-1 and crystal violet colorimetric assays.

[4] = test system: MCF-7(HER2), SK-BR-3, MDA-MB-231 and MDA-MB-468 breast cancer cells; conditions: different doses, SK-BR-3, MDA-MB-231, MDA-MB-468, triplicates
Procedure: as §6

[5] = Paclitaxel 30 mg/kg i.v., 1x on alternate days for 5 doses, Day 20
[6] = Compound A 41.1 mg/kg p.o., 1x daily, Day 20
[7] = Compound A 68.5 mg/kg p.o., 1x daily, Day 20
[8] = Compound C 32.7 mg/kg p.o., 1x daily, Day 20
[9] = Compound C 54.4 mg/kg p.o., 1x daily, Day 20
[10] = breast cancer cells, listed as metformin
[11] = Metformin 192.3 mg/kg i.p., 1x daily, Day 20

In the case of `CC(=O)O[C@H]1C(=O)[C@@]2(C)[C@H]([C@H](OC(=O)c3ccccc3)[C@]3(O)C[C@H](OC(=O)[C@H](O)[C@@H](NC(=O)c4ccccc4)c4ccccc4)C(C)=C1C3(C)C)[C@]1(OC(C)=O)CO[C@@H]1C[C@@H]2O` [Paclitaxel, reference compound], the “Mean Tumor Vol. Change” value [1, 5] is reported as 9 mm^3, the Regression [1, 5] is reported as “None” and the T/C [1, 5] is reported as 3%. For the same compound, the Dead/Total ([2]; Paclitaxel 30 mg/kg i.v., 1x on alternate days for 5 doses) was 0/8.

In the case of `Cn1c(=O)n(-c2ccc(C(C)(C)C#N)cc2)c2c3cc(-c4cnc5ccccc5c4)ccc3ncc21` [Compound A, 2-Methyl-2-[4-(3-methyl-2-oxo-8-quinolin-3-yl-2,3-dihydro-imidazo[4,5-c]quinolin-1-yl)-phenyl]-propionitrile], the “levels of p-S6 ribosomal protein” value ([3]; breast cancer cells) is reported as “potently decreases”, the p-AKT ([3]; breast cancer cells) is reported as “potently decreases” and the “p-MAPK / MAPK phosphorylation” value ([3]; breast cancer cells) is reported as “increases MAPK phosphorylation”. The “Mean Tumor Vol. Change” value [1, 6] was 58 mm^3, the Regression [1, 6] was “None” and the T/C [1, 6] was 18% (ns). The “Mean Tumor Vol. Change” value [1, 7] was −51 mm^3, the Regression [1, 7] was 3 Partial and the T/T0 [1, 7] was −31% (T/T0,. The Dead/Total ([2]; female, nu/nu (nude), mouse, in vivo, po, 41.1 mg/kg) was 0/8, the Dead/Total ([2]; female, nu/nu (nude), mouse, in vivo, po, 68.5 mg/kg) was 0/9 and the “Mean Body Weight Change” value ([2]; mouse, in vivo, po, 68.5 mg/kg) was −0.8%, Day 4.

In the case of `Nc1cc(C(F)(F)F)c(-c2cc(N3CCOCC3)nc(N3CCOCC3)n2)cn1` [Compound C, 5-(2,6-di-morpholin-4-yl-pyrimidin-4-yl)-4-trifluoromethyl-pyridin-2-ylamine], the “Mean Tumor Vol. Change” value [1, 8] is reported as 63 mm^3, the Regression [1, 8] is reported as “None” and the T/C [1, 8] is reported as 20% (ns). For the same compound, the “Mean Tumor Vol. Change” value [1, 9] was −80 mm^3, the Regression [1, 9] was “None” and the T/T0 [1, 9] was −48% (T/T0,.

With `CN(C)C(=N)N=C(N)N` [Metformin, dimethyldiguanide, reference compound] the “AMPK activation (p-AMPK)” value ([3]; breast cancer cells) was “activates AMPK”, the “levels of p-S6 ribosomal protein” value ([3]; breast cancer cells) was “decreasing the levels of p-S6 ribosomal protein” and the “receptor tyrosine kinase (EGFR and HER2) expression” value ([3]; breast cancer cells) was “reduced receptor tyrosine kinase (EGFR and HER2) expression”. The “AMPK activation (p-AMPK)” value [3, 10] was “activates p-AMPK”, the “p-MAPK / MAPK phosphorylation” value [3, 10] was “reduces p-MAPK; also recorded: decreased p-MAPK” and the “MARK pathway transactivation induced by COMPOUND A” value ([3]; metformin together with COMPOUND A) was “counteracts”. The “cell proliferation / growth inhibition” value [4] was “dose-dependent growth inhibition”, the “cell proliferation / growth inhibition” value ([4]; listed as metformin) was “inhbitor of HER2 negative breast cancer cell proliferation” and the “Mean Tumor Vol. Change” value [1, 11] was 221 mm^3. For the same compound, the Regression [1, 11] was “None”, the “activity in the 20-day tumor growth inhibition assay” value ([1]; metformin monotherapy at 192.3 mg/kg) was “did not appear active” and the T/C ([1]; mouse, in vivo) was 69% (ns). For the same compound, the Dead/Total ([2]; female, nu/nu (nude), mouse, in vivo) was 1/9.

Source: patent US20120059005A1, “COMBINATION OF (A) A PHOSPHOINOSITIDE 3-KINASE INHIBITOR AND (B) AN ANTIDIABETIC COMPOUND FOR USE IN THE TREATMENT OF PROLIFERATIVE DISEASES” (NOVARTIS AG, priority 2009, published 2012)
